For assay [1], the system named is HLE and HLF cells. Briefly: HCC trans-well migration assay on fibronectin. Type of assay: cell-based, human. The note with it: soluble rhPRG4 25 μg/ml; 16 hours. An excerpt:
(§1) Stable CD44 silencing: HLE and HLF cell lines were transduced with lentiviral particles carrying control non-targeting (V), or specific CD44-targeting shRNA sequences (A to D), and selected with puromycin dihydrochloride (Thermo Fisher Scientific) to obtain stable CD44 silencing, according to manufacturer instructions (OriGene Technologies, Inc., Rockville, Md. 20850, USA). Control-shRNA sequence (V) and CD44-shRNA sequence B were used in all the experiments involving CD44 downregulation.
Trans-well migration assay: The assay was performed as previously described. (Dituri et al., PLoS One 2013. doi:10.1371/journal.pone.0067109). Briefly, 15,000 cells were loaded onto the top chamber of the trans-well, whose membrane was previously coated with fibronectin on the lower surface, and left to migrate for 16 hours in the presence/absence of rhPRG4 (25 μg/ml) diluted in serum-free DMEM medium (+0.5% BSA) in the lower chamber. The cells were then paraformaldehyde-fixed and stained with crystal violet. Five fields/membrane were captured and the number of cells/field was measured.

Assay [2] has as its system non-metastatic triple negative breast cancer. Briefly: Treatment of a human with triple negative breast cancer, local injection. Type of assay: in vivo. The procedure: (§2) A human diagnosed with non-metastatic triple negative breast cancer is administered recombinant human PRG4 (rhPRG4) by local injection to the area of the tumor. Administration is done under local anesthesia. A total amount of 2 mL of rhPRG4 in physiological saline at a concentration of 100 ug/mL is administered via a 14 gauge needle. Several injections are made into the tumor and over its surface in order to disperse the dose throughout the tumor area. The dose is administered once weekly for four weeks.
as §2, with “weeks. During the dosing rhPRG4 schedule, the patient also receives a cocktail of taxane and doxorubicin per standard protocols.” for “weeks.”

Assay [3] concerns HLE and HLF cells. Briefly: HCC cell adhesion assay on coated wells. It is filed as cell-based, human. The note with it: CD44-shRNA vs control-shRNA; 30 minutes.
Text: as §1
Adhesion assay: Diluted in 100 μl of serum free DMEM medium (+0.5% BSA), 50,000 cells, were seeded onto uncoated, rhPRG4, or fibronectin (FN)-coated wells of a 96-well plate, and then incubated at 37° C., 5% CO2 for 30 minutes. An equal volume of 4% PFA (pH 7.2 in PBS) was added and the plates were immediately flicked for a few seconds to allow mixing. Thirty minutes later, the medium was removed and the adherent cells were stained with crystal violet for 10 min. After abundant washing with tap water and distilled water the stained cells were allowed to dry out, and then they were solubilized with 100 μl of 1% sodium dodecyl sulphate in water. Absorbance was read at 595 nm and proportionally related to the number of adhered cells.

In another assay the test system is colon cancer. Briefly: Treatment of a human with colon cancer, systemic administration. Type of assay: in vivo. Conditions: 500 mg rhPRG4 via central venous catheter, once weekly for four weeks. The procedure: An 80 kg human diagnosed with colon cancer is administered recombinant human PRG4 (rhPRG4) by systemic administration via a central venous catheter. A total amount of 500 mg of rhPRG4 in 250 mL of physiological saline at a concentration of 2.0 mg/mL of lubricin is administered to create a blood concentration of approximately 100 μg/mL. The dose is administered once weekly for four weeks.

The next assay concerns PLC/PRF/5. Briefly: 72-hour proliferation assay, PLC/PRF/5. It is filed as cell-based, human. Conditions: drug 2.5 μM. The protocol: Proliferation assay: In 100 μl complete medium, 3,000 cells were seeded in wells of a 96-well plate and left overnight to allow complete attachment. The next day (at time t=0 hours), the medium was removed and replaced with 100 μl of fresh medium in the presence/absence of Sorafenib (2.5 μM), Regorafenib (2.5 μM), rhPRG4 (12.5 to 100 μg/ml). Dimethyl sulfoxide (DMSO) and PBS+0.01% Tween-20 were used as vehicles of Sorafenib/Regorafenib, and rhPRG4, respectively. Cells in triplicate wells for each cell line were fixed at t=0 hours with 4% paraformaldehyde (PFA, pH 7.6, 10 min incubation), then stained with crystal violet (CV) and thoroughly washed to remove the excess staining. After 72 hours, the cells were fixed by adding 100 μl of 4% PFA directly to the medium (2% final PFA concentration, 20 min incubation), and processed for CV staining as previously described. Then, 100 or 200 μl of 1% sodium dodecyl-sulphate were added to the wells and the plates were left under shaking until complete CV release from stained cells. Optical density was at 595 nm wavelength measured using a plate reader.

Consider one substance from US20220332839A1, “USE OF PRG4 TO TREAT CANCER” (Lubris LLC, priority 2019, published 2022).

As for “rhPRG4: full-length recombinant human PRG4 (lubricin) glycoprotein produced by CHO-M cells; residues 25-1404 of SEQ ID NO:1”, the “migration of cells on fibronectin” value with HLE and HLF cells [1] is “impairs the migration”. Further, the “tumor size by CT scan after four weeks” value is “tumor has shrunk in size” in assay [2] (2 mL of 100 ug/mL rhPRG4, local injection, once weekly for four weeks) and “decreased in size” with colon cancer. In assay [2] (2 mL of 100 ug/mL rhPRG4 locally weekly plus taxane and doxorubicin), the “tumor size by CT scan after four weeks, with taxane and doxorubicin” value is “shrunk in size and at a rate faster”. The “cell adhesion to lubricin-coated wells” value with HLE and HLF cells [3] is “impaired upon silencing of CD44 expression”. Further, the rhPRG4-drug synergistic effect result in the assay on PLC/PRF/5 was “did not respond at all”.
